In ChEMBL document CHEMBL4823282, “Novel Broad-Spectrum Antimicrobial Peptide Derived from Anoplin and Its Activity on Bacterial Pneumonia in Mice” (J Med Chem, 2021):
pIC50: −log10 of the molar value. Values after ≈ are worked out from the molar mass of the structure shown. Where a SMILES comes first, the peptide text is derived from it.

Tests used:
Staphylococcus aureus = assay: Antibacterial activity against Staphylococcus aureus ATCC 25923 incubated for 18 hrs by CLSI based broth dilution method; format: functional
Bacillus subtilis = assay: Antibacterial activity against Bacillus subtilis ATCC 23857 incubated for 18 hrs by CLSI based broth dilution method; format: functional
Enterococcus faecalis = assay: Antibacterial activity against Enterococcus faecalis ATCC 29212 incubated for 18 hrs by CLSI based broth dilution method; format: functional
[1] = test system: Staphylococcus epidermidis; assay: Antibacterial activity against Staphylococcus epidermidis ATCC 12228 incubated for 18 hrs by CLSI based broth dilution method; format: functional
Escherichia coli = assay: Antibacterial activity against Escherichia coli ATCC 25922 incubated for 18 hrs by CLSI based broth dilution method; format: functional
Pseudomonas aeruginosa [2] = assay: Antibacterial activity against Pseudomonas aeruginosa ATCC 27853 incubated for 18 hrs by CLSI based broth dilution method; format: functional
Klebsiella pneumoniae = assay: Antibacterial activity against Klebsiella pneumoniae ATCC 700603 incubated for 18 hrs by CLSI based broth dilution method; format: functional
Acinetobacter baumannii = assay: Antibacterial activity against Acinetobacter baumannii ATCC 19606 incubated for 18 hrs by CLSI based broth dilution method; format: functional; settings: ATCC 19606 = CIP 70.34 = JCM 6841
Erythrocyte = assay: Hemolytic activity in BALB/C mouse erythrocytes incubated for 1 hr by absorbance method; format: ADME, cell-based
[3] = Cytotoxicity against human glomerular mesangial cells incubated for 12 hrs by MTT assay; format: cell-based; settings: Glomerular mesangial cell
Bacteria [4] = assay: Antibacterial activity against bacteria incubated for 18 hrs by CLSI based broth dilution method; format: functional
Fungi = assay: Antibacterial activity against fungi incubated for 18 hrs by CLSI based broth dilution method; format: functional
[5] = Selectivity ratio of MHC10 for BALB/C mouse erythrocytes to MIC for bacteria; format: toxicity
[6] = Selectivity ratio of MHC10 for BALB/C mouse erythrocytes to MIC for fungi; format: toxicity
Bacteria [7] = assay: Antibacterial activity against Gram-positive bacteria incubated for 18 hrs by CLSI based broth dilution method; format: functional
[8] = Selectivity ratio of MHC10 for BALB/C mouse erythrocytes to MIC for gram positive bacteria; format: toxicity
Bacteria [9] = assay: Antibacterial activity against Gram-negative bacteria incubated for 18 hrs by CLSI based broth dilution method; format: functional
[10] = Selectivity ratio of MHC10 for BALB/C mouse erythrocytes to MIC for gram-negative bacteria; format: toxicity
Pseudomonas aeruginosa [11] = assay: Synergistic antibacterial activity against Pseudomonas aeruginosa ATCC 27853 at 2 times MIC incubated for 18 to 24 hrs in presence of 2 times MIC of rifampicin by broth microdilution assay based checkerboard assay; format: functional; settings: time 18-24 hrs
Pseudomonas aeruginosa [12] = assay: Synergistic antibacterial activity against Pseudomonas aeruginosa ATCC 27853 at 2 times MIC incubated for 18 to 24 hrs in presence of 2 times MIC of polymyxin B by broth microdilution assay based checkerboard assay; format: functional; settings: time 18-24 hrs

Row | Structure (SMILES) | MIC (Staphylococcus aureus) | MIC (Bacillus subtilis) | MIC (Enterococcus faecalis) | MIC [1] | MIC (Escherichia coli) | MIC (Pseudomonas aeruginosa [2]) | MIC (Klebsiella pneumoniae) | MIC (Acinetobacter baumannii) | MHC10 (Erythrocyte) | pIC50 [3] | MIC (Bacteria [4]) | MIC (Fungi) | selectivity ratio [5] | selectivity ratio [6] | MIC (Bacteria [7]) | selectivity ratio at 18 h [8] | MIC (Bacteria [9]) | selectivity ratio [10] | FIC (Pseudomonas aeruginosa [11]) | FIC (Pseudomonas aeruginosa [12])
1 | CC(C)C[C@H](NC(=O)[C@H](CC(C)C)NC(=O)[C@@H](NC(=O)[C@H](CCCCN)NC(=O)[C@H](Cc1c[nH]c2ccccc12)NC(=O)[C@H](CCCNC(=N)N)NC(=O)[C@H](CCCCN)NC(=O)[C@H](CC(C)C)NC(=O)[C@H](CC(C)C)NC(=O)CN)[C@@H](C)O)C(N)=O (H-GLLKRWKTLL-NH2) | 128 µM (≈ 157 µg/mL) | 128 µM (≈ 157 µg/mL) | 256 µM (≈ 314 µg/mL) | 16 µM (≈ 19.6 µg/mL) | 64 µM (≈ 78.5 µg/mL) | 64 µM (≈ 78.5 µg/mL) | 64 µM (≈ 78.5 µg/mL) | 256 µM (≈ 314 µg/mL) | >= 512 uM | ≤ 3.29 | 64 µM (≈ 78.5 µg/mL) | 64 µM (≈ 78.5 µg/mL) | 8 | 8 | 90.5 µM (≈ 111 µg/mL) | 5.66 | 45.3 µM (≈ 55.6 µg/mL) | 11.3 | 0.5625 | 0.3125
2 | CC[C@H](C)[C@H](NC(=O)[C@H](CCCNC(=N)N)NC(=O)[C@H](CCCCN)NC(=O)[C@H](Cc1c[nH]c2ccccc12)NC(=O)[C@H](Cc1c[nH]c2ccccc12)NC(=O)CN)C(=O)N[C@@H](CCCCN)C(=O)N[C@H](C(=O)N[C@@H](Cc1c[nH]c2ccccc12)C(=O)N[C@@H](Cc1c[nH]c2ccccc12)C(N)=O)[C@@H](C)O (H-GWWKRIKTWW-NH2) | 4 µM (≈ 5.78 µg/mL) | 8 µM (≈ 11.6 µg/mL) | 16 µM (≈ 23.1 µg/mL) | 8 µM (≈ 11.6 µg/mL) | 8 µM (≈ 11.6 µg/mL) | 8 µM (≈ 11.6 µg/mL) | 8 µM (≈ 11.6 µg/mL) | 8 µM (≈ 11.6 µg/mL) | 102.54 µM | 4.60 | 7.34 µM (≈ 10.6 µg/mL) | 7.34 µM (≈ 10.6 µg/mL) | 14 | 14 | 8 µM (≈ 11.6 µg/mL) | 12.8 | 6.7 µM (≈ 9.69 µg/mL) | 15.3 | 0.5 | 0.5
3 | N=C(N)NCCC[C@H](NC(=O)[C@H](CCCCN)NC(=O)[C@H](Cc1c[nH]c2ccccc12)NC(=O)[C@H](Cc1c[nH]c2ccccc12)NC(=O)[C@@H](N)CCCCN)C(=O)N[C@@H](Cc1c[nH]c2ccccc12)C(=O)N[C@@H](CCCCN)C(=O)N[C@@H](CCCCN)C(=O)N[C@@H](Cc1c[nH]c2ccccc12)C(=O)N[C@@H](Cc1c[nH]c2ccccc12)C(N)=O (H-KWWKRWKKWW-NH2) | 8 µM (≈ 12.9 µg/mL) | 4 µM (≈ 6.47 µg/mL) | 16 µM (≈ 25.9 µg/mL) | 8 µM (≈ 12.9 µg/mL) | 16 µM (≈ 25.9 µg/mL) | 16 µM (≈ 25.9 µg/mL) | 16 µM (≈ 25.9 µg/mL) | 8 µM (≈ 12.9 µg/mL) | 77.65 µM | 4.70 | 9.51 µM (≈ 15.4 µg/mL) | 9.51 µM (≈ 15.4 µg/mL) | 8.16 | 8.16 | 8 µM (≈ 12.9 µg/mL) | 9.71 | 11.3 µM (≈ 18.3 µg/mL) | 6.87 | 0.3125 | 0.25
4 | CC[C@H](C)[C@H](NC(=O)[C@H](CCCNC(=N)N)NC(=O)[C@H](CCCNC(=N)N)NC(=O)[C@H](Cc1ccccc1)NC(=O)[C@H](Cc1ccccc1)NC(=O)CN)C(=O)N[C@@H](CCCNC(=N)N)C(=O)N[C@H](C(=O)N[C@@H](Cc1ccccc1)C(=O)N[C@@H](Cc1ccccc1)C(N)=O)[C@@H](C)O (H-GFFRRIRTFF-NH2) | 8 µM (≈ 10.8 µg/mL) | 8 µM (≈ 10.8 µg/mL) | 32 µM (≈ 43.1 µg/mL) | 32 µM (≈ 43.1 µg/mL) | 32 µM (≈ 43.1 µg/mL) | 32 µM (≈ 43.1 µg/mL) | 32 µM (≈ 43.1 µg/mL) | 32 µM (≈ 43.1 µg/mL) | >= 512 uM | 4.28 | 17.4 µM (≈ 23.5 µg/mL) | 17.4 µM (≈ 23.5 µg/mL) | 29.3 | 29.3 | 16 µM (≈ 21.5 µg/mL) | 32 | – | 26.9 | 0.5625 | 0.5625
5 | CC[C@H](C)[C@H](NC(=O)[C@H](CCCNC(=N)N)NC(=O)[C@H](CCCNC(=N)N)NC(=O)[C@H](Cc1ccccc1)NC(=O)[C@H](Cc1ccccc1)NC(=O)CN)C(=O)N[C@@H](CCCCN)C(=O)N[C@H](C(=O)N[C@@H](Cc1ccccc1)C(=O)N[C@@H](Cc1ccccc1)C(N)=O)[C@@H](C)O (H-GFFRRIKTFF-NH2) | 16 µM (≈ 21.1 µg/mL) | 16 µM (≈ 21.1 µg/mL) | 64 µM (≈ 84.3 µg/mL) | 64 µM (≈ 84.3 µg/mL) | 32 µM (≈ 42.2 µg/mL) | 32 µM (≈ 42.2 µg/mL) | 32 µM (≈ 42.2 µg/mL) | 64 µM (≈ 84.3 µg/mL) | >= 512 uM | 4.04 | 29.3 µM (≈ 38.7 µg/mL) | 29.3 µM (≈ 38.7 µg/mL) | 17.4 | 17.4 | 32 µM (≈ 42.2 µg/mL) | 16 | – | 19 | 0.3125 | 0.5
6 | CC[C@H](C)[C@H](NC(=O)[C@H](CCCNC(=N)N)NC(=O)[C@H](CCCCN)NC(=O)[C@H](Cc1ccccc1)NC(=O)[C@H](Cc1c[nH]c2ccccc12)NC(=O)CN)C(=O)N[C@@H](CCCCN)C(=O)N[C@H](C(=O)N[C@@H](Cc1ccccc1)C(=O)N[C@@H](Cc1c[nH]c2ccccc12)C(N)=O)[C@@H](C)O (H-GWFKRIKTFW-NH2) | 16 µM (≈ 21.9 µg/mL) | 4 µM (≈ 5.47 µg/mL) | 64 µM (≈ 87.5 µg/mL) | 4 µM (≈ 5.47 µg/mL) | 16 µM (≈ 21.9 µg/mL) | 16 µM (≈ 21.9 µg/mL) | 32 µM (≈ 43.8 µg/mL) | 64 µM (≈ 87.5 µg/mL) | 384 µM | 4.01 | 16 µM (≈ 21.9 µg/mL) | 16 µM (≈ 21.9 µg/mL) | 24 | 24 | 11.3 µM (≈ 15.5 µg/mL) | 34 | – | 17 | 0.3125 | 0.25
7 | CC[C@H](C)[C@H](NC(=O)[C@H](CCCNC(=N)N)NC(=O)[C@H](CCCCN)NC(=O)[C@H](Cc1ccccc1)NC(=O)[C@H](Cc1ccccc1)NC(=O)CN)C(=O)N[C@@H](CCCNC(=N)N)C(=O)N[C@H](C(=O)N[C@@H](Cc1ccccc1)C(=O)N[C@@H](Cc1ccccc1)C(N)=O)[C@@H](C)O (H-GFFKRIRTFF-NH2) | 16 µM (≈ 21.1 µg/mL) | 16 µM (≈ 21.1 µg/mL) | 64 µM (≈ 84.3 µg/mL) | 64 µM (≈ 84.3 µg/mL) | 32 µM (≈ 42.2 µg/mL) | 32 µM (≈ 42.2 µg/mL) | 32 µM (≈ 42.2 µg/mL) | 64 µM (≈ 84.3 µg/mL) | >= 512 uM | 4.05 | 26.9 µM (≈ 35.5 µg/mL) | 26.9 µM (≈ 35.5 µg/mL) | 19 | 19 | 32 µM (≈ 42.2 µg/mL) | 16 | – | 22.6 | 0.5625 | 0.5625
